Experimental data taken from patent US20260356819A1, “OXOISOINDOLINYL-SUBSTITUTED […] DERIVATIVE AND USE THEREOF” (GLUETACS THERAPEUTICS (SHANGHAI) CO., LTD., priority 2023, published 2026).

What was measured:
Assay type in all cases: cell-based
Settings in all cases: compounds at 50 nM and 500 nM
IKZF1 = molecular target: T1, IKZF1 (Homo sapiens, UniProt Q13422+Q96SW2); test: Western blot degradation of IKZF1 in hPBMCs (24 h)
T1 construct: The supernatant was aspirated as the extracted total cell protein; endogenous in cells; host or cells: human peripheral blood mononuclear cells (hPBMCs)
In short: (§1)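 hPBMCs (1×10^6 cells/mL) were treated with compound at 50 nM and 500 nM for 24 h, lysed in RIPA with protease inhibitors and analysed by SDS-PAGE/Western blot. Band grayscale, normalised to internal control, gave protein remaining (%); DC50 estimated versus DMSO bands.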

GSPT1 = molecular target: T2, GSPT1 (Homo sapiens, UniProt P15170+Q96SW2); test: Western blot degradation of GSPT1 in hPBMCs (24 h)
T2 construct: The supernatant was aspirated as the extracted total cell protein; endogenous in cells; host or cells: human peripheral blood mononuclear cells (hPBMCs)
T2 sequence (P15170 whole entry): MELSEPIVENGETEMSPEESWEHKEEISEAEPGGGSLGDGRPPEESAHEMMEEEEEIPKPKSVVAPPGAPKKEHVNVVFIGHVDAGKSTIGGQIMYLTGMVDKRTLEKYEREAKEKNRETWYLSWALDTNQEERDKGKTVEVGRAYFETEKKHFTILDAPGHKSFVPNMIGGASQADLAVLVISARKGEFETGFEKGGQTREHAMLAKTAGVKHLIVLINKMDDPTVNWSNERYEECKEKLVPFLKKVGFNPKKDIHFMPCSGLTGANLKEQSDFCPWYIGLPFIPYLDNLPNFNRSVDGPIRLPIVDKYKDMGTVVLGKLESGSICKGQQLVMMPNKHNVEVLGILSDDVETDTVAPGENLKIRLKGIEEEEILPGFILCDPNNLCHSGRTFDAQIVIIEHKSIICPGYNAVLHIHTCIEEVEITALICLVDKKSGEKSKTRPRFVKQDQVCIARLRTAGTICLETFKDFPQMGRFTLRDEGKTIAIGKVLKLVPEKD
T2 sequence (Q96SW2 whole entry): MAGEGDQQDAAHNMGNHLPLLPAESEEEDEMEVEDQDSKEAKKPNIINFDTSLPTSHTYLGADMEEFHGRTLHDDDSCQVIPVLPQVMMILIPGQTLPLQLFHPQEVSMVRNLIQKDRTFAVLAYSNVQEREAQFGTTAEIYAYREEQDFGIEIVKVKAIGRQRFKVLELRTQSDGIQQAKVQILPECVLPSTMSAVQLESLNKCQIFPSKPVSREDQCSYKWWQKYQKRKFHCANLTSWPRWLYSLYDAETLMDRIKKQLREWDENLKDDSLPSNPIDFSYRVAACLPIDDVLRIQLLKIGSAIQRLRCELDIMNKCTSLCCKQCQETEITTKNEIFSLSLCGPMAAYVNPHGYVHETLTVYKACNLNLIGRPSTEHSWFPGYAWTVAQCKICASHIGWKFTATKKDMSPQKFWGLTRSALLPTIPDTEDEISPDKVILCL
T2 sequence (Q16531 whole entry partner): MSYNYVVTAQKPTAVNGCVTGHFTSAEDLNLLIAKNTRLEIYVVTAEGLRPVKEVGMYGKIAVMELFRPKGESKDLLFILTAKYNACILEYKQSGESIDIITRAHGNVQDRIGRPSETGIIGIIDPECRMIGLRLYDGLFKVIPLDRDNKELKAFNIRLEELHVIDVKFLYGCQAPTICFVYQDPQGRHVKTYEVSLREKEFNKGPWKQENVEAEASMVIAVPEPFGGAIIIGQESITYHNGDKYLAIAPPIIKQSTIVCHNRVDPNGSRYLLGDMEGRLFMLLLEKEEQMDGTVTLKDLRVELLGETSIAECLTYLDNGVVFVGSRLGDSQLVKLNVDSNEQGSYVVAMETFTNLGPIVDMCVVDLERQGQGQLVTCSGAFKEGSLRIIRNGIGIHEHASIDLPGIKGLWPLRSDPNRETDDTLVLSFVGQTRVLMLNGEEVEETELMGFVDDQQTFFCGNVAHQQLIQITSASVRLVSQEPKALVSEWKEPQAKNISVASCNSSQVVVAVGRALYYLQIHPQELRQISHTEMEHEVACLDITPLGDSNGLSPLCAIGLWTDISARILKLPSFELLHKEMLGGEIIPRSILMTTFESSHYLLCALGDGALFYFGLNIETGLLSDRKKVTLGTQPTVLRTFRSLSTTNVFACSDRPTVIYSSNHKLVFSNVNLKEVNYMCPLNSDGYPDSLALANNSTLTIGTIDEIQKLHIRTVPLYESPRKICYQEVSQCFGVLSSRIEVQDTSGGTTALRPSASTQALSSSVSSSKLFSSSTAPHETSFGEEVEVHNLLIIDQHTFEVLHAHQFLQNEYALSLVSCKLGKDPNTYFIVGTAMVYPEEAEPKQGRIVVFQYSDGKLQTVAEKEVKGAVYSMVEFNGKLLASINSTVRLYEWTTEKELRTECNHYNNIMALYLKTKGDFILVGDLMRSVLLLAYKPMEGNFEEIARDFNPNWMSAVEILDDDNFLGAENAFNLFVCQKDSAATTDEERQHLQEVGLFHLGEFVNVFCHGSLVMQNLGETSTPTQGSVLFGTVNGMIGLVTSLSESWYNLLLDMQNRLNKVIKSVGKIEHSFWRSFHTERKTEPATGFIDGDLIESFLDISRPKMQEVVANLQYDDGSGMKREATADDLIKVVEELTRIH
In short: as §1

IKZF3 = molecular target: T3, IKZF3 (Homo sapiens, UniProt Q96SW2+Q9UKT9); test: Western blot degradation of IKZF3 in hPBMCs (24 h)
T3 construct: The supernatant was aspirated as the extracted total cell protein; endogenous in cells; host or cells: human peripheral blood mononuclear cells (hPBMCs)
T3 sequence (Q9UKT9 whole entry): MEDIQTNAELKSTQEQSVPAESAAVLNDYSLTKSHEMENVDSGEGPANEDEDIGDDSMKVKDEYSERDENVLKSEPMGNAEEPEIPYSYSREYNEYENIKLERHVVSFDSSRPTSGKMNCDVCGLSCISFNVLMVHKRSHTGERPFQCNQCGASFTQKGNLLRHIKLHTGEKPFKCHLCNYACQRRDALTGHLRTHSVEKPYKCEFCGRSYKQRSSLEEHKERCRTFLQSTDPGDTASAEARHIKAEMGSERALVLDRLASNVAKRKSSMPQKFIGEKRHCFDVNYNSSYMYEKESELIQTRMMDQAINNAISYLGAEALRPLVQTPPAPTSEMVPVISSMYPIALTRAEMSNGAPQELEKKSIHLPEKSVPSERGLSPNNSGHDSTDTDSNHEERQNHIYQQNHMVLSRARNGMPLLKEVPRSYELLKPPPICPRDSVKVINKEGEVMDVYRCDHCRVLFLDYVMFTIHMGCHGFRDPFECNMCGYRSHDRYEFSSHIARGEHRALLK
T3 sequence (Q96SW2 whole entry): as the sequence (Q96SW2 whole entry) above
T3 sequence (Q16531 whole entry partner): as the sequence (Q16531 whole entry partner) above
In short: as §1

IKZF2 = molecular target: T4, IKZF2 (Homo sapiens, UniProt Q96SW2+Q9UKS7); test: Western blot degradation of IKZF2 in hPBMCs (24 h)
T4 construct: The supernatant was aspirated as the extracted total cell protein; endogenous in cells; host or cells: human peripheral blood mononuclear cells (hPBMCs)
T4 sequence (Q9UKS7 whole entry): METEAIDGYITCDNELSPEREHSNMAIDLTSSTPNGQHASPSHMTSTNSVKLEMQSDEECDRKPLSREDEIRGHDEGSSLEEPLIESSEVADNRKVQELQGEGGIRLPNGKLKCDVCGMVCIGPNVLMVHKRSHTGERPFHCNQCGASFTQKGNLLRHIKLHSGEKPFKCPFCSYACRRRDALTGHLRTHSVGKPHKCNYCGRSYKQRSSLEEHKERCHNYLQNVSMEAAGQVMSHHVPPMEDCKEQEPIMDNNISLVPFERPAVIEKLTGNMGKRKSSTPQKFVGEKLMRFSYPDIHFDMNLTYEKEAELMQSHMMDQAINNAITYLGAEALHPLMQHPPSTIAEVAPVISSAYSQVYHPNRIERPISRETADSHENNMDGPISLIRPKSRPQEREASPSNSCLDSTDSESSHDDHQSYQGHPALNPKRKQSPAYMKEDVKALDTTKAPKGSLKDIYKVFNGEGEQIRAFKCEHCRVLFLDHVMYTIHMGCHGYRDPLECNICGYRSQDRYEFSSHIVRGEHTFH
T4 sequence (Q96SW2 whole entry): as the sequence (Q96SW2 whole entry) above
T4 sequence (Q16531 whole entry partner): as the sequence (Q16531 whole entry partner) above
In short: as §1

CK1α = molecular target: T5, CK1α (Homo sapiens, UniProt P48729+Q96SW2); test: Western blot degradation of CK1α in hPBMCs (24 h)
T5 construct: The supernatant was aspirated as the extracted total cell protein; endogenous in cells; host or cells: human peripheral blood mononuclear cells (hPBMCs)
T5 sequence (P48729 whole entry): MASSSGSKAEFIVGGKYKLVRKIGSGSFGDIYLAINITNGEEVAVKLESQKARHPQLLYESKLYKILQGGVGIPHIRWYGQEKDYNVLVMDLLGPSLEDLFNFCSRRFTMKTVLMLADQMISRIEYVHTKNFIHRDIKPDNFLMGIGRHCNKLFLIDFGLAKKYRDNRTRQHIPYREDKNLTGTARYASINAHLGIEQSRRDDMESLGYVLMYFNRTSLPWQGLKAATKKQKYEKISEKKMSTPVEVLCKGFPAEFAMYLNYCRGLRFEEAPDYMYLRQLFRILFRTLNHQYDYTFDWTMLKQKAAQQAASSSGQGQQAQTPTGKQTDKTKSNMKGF
T5 sequence (Q96SW2 whole entry): as the sequence (Q96SW2 whole entry) above
T5 sequence (Q16531 whole entry partner): as the sequence (Q16531 whole entry partner) above
In short: as §1

WEE1 = molecular target: T6, WEE1 (Homo sapiens, UniProt P30291+Q96SW2); test: Western blot degradation of WEE1 in hPBMCs (24 h)
T6 construct: The supernatant was aspirated as the extracted total cell protein; endogenous in cells; host or cells: human peripheral blood mononuclear cells (hPBMCs)
T6 sequence (P30291 whole entry): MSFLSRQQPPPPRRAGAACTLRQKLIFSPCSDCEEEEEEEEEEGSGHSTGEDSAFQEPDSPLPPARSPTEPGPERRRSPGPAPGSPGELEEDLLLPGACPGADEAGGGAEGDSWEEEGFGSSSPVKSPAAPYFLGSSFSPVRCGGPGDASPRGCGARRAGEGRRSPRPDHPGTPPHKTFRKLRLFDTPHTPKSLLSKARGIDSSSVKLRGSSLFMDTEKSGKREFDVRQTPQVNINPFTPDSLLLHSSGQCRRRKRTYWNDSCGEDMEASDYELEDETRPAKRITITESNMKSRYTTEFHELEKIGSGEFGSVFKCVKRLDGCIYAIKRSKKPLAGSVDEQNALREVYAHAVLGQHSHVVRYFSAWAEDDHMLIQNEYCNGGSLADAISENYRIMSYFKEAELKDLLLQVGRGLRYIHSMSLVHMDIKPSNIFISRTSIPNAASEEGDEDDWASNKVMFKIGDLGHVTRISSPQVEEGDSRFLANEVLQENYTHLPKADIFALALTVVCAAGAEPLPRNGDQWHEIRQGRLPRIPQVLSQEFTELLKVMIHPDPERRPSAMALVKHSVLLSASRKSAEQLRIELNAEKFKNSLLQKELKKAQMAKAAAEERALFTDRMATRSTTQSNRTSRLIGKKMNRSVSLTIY
T6 sequence (Q96SW2 whole entry): as the sequence (Q96SW2 whole entry) above
T6 sequence (Q16531 whole entry partner): as the sequence (Q16531 whole entry partner) above
In short: as §1

Compound	IKZF1 substrate protein remaining % (IKZF1)	GSPT1 substrate protein remaining % (GSPT1)	IKZF3 substrate protein remaining % (IKZF3)	IKZF2 substrate protein remaining % (IKZF2)	CK1α substrate protein remaining % (CK1α)	WEE1 substrate protein remaining % (WEE1)
Cc1cc(C2=CCN(Cc3ccc4c(c3)C(=O)N(N3CCC(=O)NC3=O)C4=O)CC2)cs1 [GT-07423, 2-(2,4-dioxotetrahydropyrimidin-1(2H)-yl)-5-((4-(5-methylthiophen-3-yl)-3,6-dihydropyridin-1(2H)-yl)methyl)isoindoline-1,3-dione]	B (80%< substrate protein remaining % ≤100%)	A (0% ≤ substrate protein remaining % ≤80%)	A (0% ≤ substrate protein remaining % ≤80%)	B (80%< substrate protein remaining % ≤100%)	A (0% ≤ substrate protein remaining % ≤80%)	A (0% ≤ substrate protein remaining % ≤80%)
O=C1CCN(N2C(=O)c3ccc(CN4CCC(c5cccs5)CC4)cc3C2=O)C(=O)N1 [GT-07424, 2-(2,4-dioxotetrahydropyrimidin-1(2H)-yl)-5-((4-(thiophen-2-yl)piperidin-1-yl)methyl)isoindoline-1,3-dione]	A (0% ≤ substrate protein remaining % ≤80%)	A (0% ≤ substrate protein remaining % ≤80%)	A (0% ≤ substrate protein remaining % ≤80%)	B (80%< substrate protein remaining % ≤100%)	B (80%< substrate protein remaining % ≤100%)	A (0% ≤ substrate protein remaining % ≤80%)
O=C1CCN(N2Cc3cc(CN4C[C@H]5C[C@@H]4CN5c4cccc(Cl)c4Cl)ccc3C2=O)C(=O)N1 [GT-07427, 1-(5-(((1R,4R)-5-(2,3-dichlorophenyl)-2,5-diazabicyclo[2.2.1]heptan-2-yl)methyl)-1-oxoisoindolin-2-yl)dihydropyrimidine-2,4(1H,3H)-dione]	A (0% ≤ substrate protein remaining % ≤80%)	A (0% ≤ substrate protein remaining % ≤80%)	B (80%< substrate protein remaining % ≤100%)	B (80%< substrate protein remaining % ≤100%)	A (0% ≤ substrate protein remaining % ≤80%)	A (0% ≤ substrate protein remaining % ≤80%)
O=C1CCN(N2Cc3cc(CN4CC5CCC4CN5c4cccc(Cl)c4Cl)ccc3C2=O)C(=O)N1 (stereo not drawn) [GT-07428, 1-(5-((5-(2,3-dichlorophenyl)-2,5-diazabicyclo[2.2.2]octan-2-yl)methyl)-1-oxoisoindolin-2-yl)dihydropyrimidine-2,4(1H,3H)-dione]	A (0% ≤ substrate protein remaining % ≤80%)	A (0% ≤ substrate protein remaining % ≤80%)	B (80%< substrate protein remaining % ≤100%)	B (80%< substrate protein remaining % ≤100%)	A (0% ≤ substrate protein remaining % ≤80%)	B (80%< substrate protein remaining % ≤100%)
O=C1CCN(N2Cc3cc(CN4CC5CCC(C4)N5c4cccc(Cl)c4Cl)ccc3C2=O)C(=O)N1 [GT-07429, 1-(5-((8-(2,3-dichlorophenyl)-3,8-diazabicyclo[3.2.1]octan-3-yl)methyl)-1-oxoisoindolin-2-yl)dihydropyrimidine-2,4(1H,3H)-dione]	A (0% ≤ substrate protein remaining % ≤80%)	B (80%< substrate protein remaining % ≤100%)	B (80%< substrate protein remaining % ≤100%)	B (80%< substrate protein remaining % ≤100%)	B (80%< substrate protein remaining % ≤100%)	B (80%< substrate protein remaining % ≤100%)
O=C1CCN(N2Cc3cc(CN4C5CCC4CN(c4cccc(Cl)c4Cl)C5)ccc3C2=O)C(=O)N1 [GT-07430, 1-(5-((3-(2,3-dichlorophenyl)-3,8-diazabicyclo[3.2.1]octan-8-yl)methyl)-1-oxoisoindolin-2-yl)dihydropyrimidine-2,4(1H,3H)-dione]	A (0% ≤ substrate protein remaining % ≤80%)	A (0% ≤ substrate protein remaining % ≤80%)	B (80%< substrate protein remaining % ≤100%)	B (80%< substrate protein remaining % ≤100%)	A (0% ≤ substrate protein remaining % ≤80%)	B (80%< substrate protein remaining % ≤100%)
O=C1CCN(N2Cc3cc(CN4CCCN(c5cccc(Cl)c5Cl)CC4)ccc3C2=O)C(=O)N1 [GT-07431, 1-(5-((4-(2,3-dichlorophenyl)-1,4-diazepan-1-yl)methyl)-1-oxoisoindolin-2-yl)dihydropyrimidine-2,4(1H,3H)-dione]	A (0% ≤ substrate protein remaining % ≤80%)	B (80%< substrate protein remaining % ≤100%)	B (80%< substrate protein remaining % ≤100%)	B (80%< substrate protein remaining % ≤100%)	A (0% ≤ substrate protein remaining % ≤80%)	B (80%< substrate protein remaining % ≤100%)
CC1CN(C(c2ccccc2)c2ccccc2)CC(C)N1Cc1ccc2c(c1)CN(N1CCC(=O)NC1=O)C2=O (stereo not drawn) [GT-07433, 1-(5-((4-benzhydryl-2,6-dimethylpiperazin-1-yl)methyl)-1-oxoisoindolin-2-yl)dihydropyrimidine-2,4(1H,3H)-dione]	B (80%< substrate protein remaining % ≤100%)	B (80%< substrate protein remaining % ≤100%)	B (80%< substrate protein remaining % ≤100%)	A (0% ≤ substrate protein remaining % ≤80%)	A (0% ≤ substrate protein remaining % ≤80%)	B (80%< substrate protein remaining % ≤100%)
O=C1CCN(N2C(=O)c3ccc(CN4CC5CC(C4)N5c4cccc(Cl)c4Cl)cc3C2=O)C(=O)N1 [GT-07434, 5-((6-(2,3-dichlorophenyl)-3,6-diazabicyclo[3.1.1]heptan-3-yl)methyl)-2-(2,4-dioxotetrahydropyrimidin-1(2H)-yl)isoindoline-1,3-dione]	B (80%< substrate protein remaining % ≤100%)	B (80%< substrate protein remaining % ≤100%)	B (80%< substrate protein remaining % ≤100%)	B (80%< substrate protein remaining % ≤100%)	A (0% ≤ substrate protein remaining % ≤80%)	B (80%< substrate protein remaining % ≤100%)
O=C1CCN(N2C(=O)c3ccc(CN4C[C@H]5C[C@@H]4CN5c4cccc(Cl)c4Cl)cc3C2=O)C(=O)N1 [GT-07435, 5-(((1R,4R)-5-(2,3-dichlorophenyl)-2,5-diazabicyclo[2.2.1]heptan-2-yl)methyl)-2-(2,4-dioxotetrahydropyrimidin-1(2H)-yl)isoindoline-1,3-dione]	B (80%< substrate protein remaining % ≤100%)	B (80%< substrate protein remaining % ≤100%)	B (80%< substrate protein remaining % ≤100%)	B (80%< substrate protein remaining % ≤100%)	A (0% ≤ substrate protein remaining % ≤80%)	B (80%< substrate protein remaining % ≤100%)
O=C1CCN(N2C(=O)c3ccc(CN4CC5CCC4CN5c4cccc(Cl)c4Cl)cc3C2=O)C(=O)N1 (stereo not drawn) [GT-07436, 5-((5-(2,3-dichlorophenyl)-2,5-diazabicyclo[2.2.2]octan-2-yl)methyl)-2-(2,4-dioxotetrahydropyrimidin-1(2H)-yl)isoindoline-1,3-dione]	B (80%< substrate protein remaining % ≤100%)	B (80%< substrate protein remaining % ≤100%)	B (80%< substrate protein remaining % ≤100%)	A (0% ≤ substrate protein remaining % ≤80%)	A (0% ≤ substrate protein remaining % ≤80%)	B (80%< substrate protein remaining % ≤100%)
O=C1CCN(N2C(=O)c3ccc(CN4CC5CCC(C4)N5c4cccc(Cl)c4Cl)cc3C2=O)C(=O)N1 [GT-07437, 5-((8-(2,3-dichlorophenyl)-3,8-diazabicyclo[3.2.1]octan-3-yl)methyl)-2-(2,4-dioxotetrahydropyrimidin-1(2H)-yl)isoindoline-1,3-dione]	B (80%< substrate protein remaining % ≤100%)	A (0% ≤ substrate protein remaining % ≤80%)	B (80%< substrate protein remaining % ≤100%)	B (80%< substrate protein remaining % ≤100%)	A (0% ≤ substrate protein remaining % ≤80%)	A (0% ≤ substrate protein remaining % ≤80%)
